Laboratory results reported in ChEMBL document CHEMBL1201862, “PubChem BioAssay data set” (2004).
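Test compounds were applied to cells in 96-well plates for 48 hours at 5 doses. GI50: concentration for 50% inhibition of growth.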 Calls of active or inactive are those of the source. Cut-off read from the data, not from the text of the source: active = GI50 up to about 1.1 µM and inactive = higher.

Experiments:
Assay in all cases: inhibition of tumour cell growth, NCI panel, 48 h
CCRF-CEM = system: CCRF-CEM
SNB-19 = system: SNB-19
Hs-578T = system: Hs-578T
NCI/ADR-RES = system: NCI/ADR-RES
RPMI-8226 = system: RPMI-8226
UACC-257 = system: UACC-257
DU-145 = system: DU-145
TK-10 = system: TK-10
LOX IMVI = system: LOX IMVI
PC-3 = system: PC-3
SR = system: SR
K562 = system: K562
SF-268 = system: SF-268
HOP-92 = system: HOP-92
OVCAR-4 = system: OVCAR-4
SK-MEL-28 = system: SK-MEL-28
COLO 205 = system: COLO 205
MDA-MB-435 = system: MDA-MB-435
SK-MEL-2 = system: SK-MEL-2
HOP-62 = system: HOP-62

Measured: GI50

N=C1OC(CN2CCN(c3ccccc3)CC2)CN1C(=S)Nc1ccccc1 (stereo not given)
inactive: CCRF-CEM 37.1 µM | SNB-19 96.4 µM | Hs-578T 13 µM | NCI/ADR-RES 45.4 µM | RPMI-8226 54 µM | UACC-257 56 µM | DU-145 > 100 µM | TK-10 43.5 µM | LOX IMVI 25.3 µM | PC-3 65.3 µM | SR 29.8 µM | K562 33.9 µM | SF-268 39.4 µM | HOP-92 21.9 µM | OVCAR-4 > 100 µM | SK-MEL-28 84.3 µM | COLO 205 > 100 µM | MDA-MB-435 76.6 µM | SK-MEL-2 59.2 µM | HOP-62 45.5 µM

O=C(Nc1ccc2ccccc2c1)c1cc2cc(CCl)ccc2oc1=O
inactive: CCRF-CEM 55.5 µM | SNB-19 27.6 µM | Hs-578T 1.55 µM | NCI/ADR-RES > 100 µM | RPMI-8226 > 100 µM | UACC-257 > 100 µM | DU-145 > 100 µM | TK-10 33.2 µM | LOX IMVI > 100 µM | PC-3 > 100 µM | SR > 100 µM | K562 54 µM | SF-268 14.2 µM | HOP-92 51.5 µM | OVCAR-4 > 100 µM | SK-MEL-28 > 100 µM | COLO 205 > 100 µM | MDA-MB-435 > 100 µM | SK-MEL-2 24 µM | HOP-62 53.5 µM

O=C1CSC(c2cccc(Cl)c2)N1c1ccc(-c2ccc(-n3c(-c4ccccc4)nc4ccccc4c3=O)cc2)cc1 (stereo not given)
inactive: CCRF-CEM 29.9 µM | SNB-19 > 100 µM | Hs-578T > 100 µM | NCI/ADR-RES 36.9 µM | RPMI-8226 42.8 µM | UACC-257 80.5 µM | DU-145 53.7 µM | TK-10 32.6 µM | LOX IMVI 35.1 µM | PC-3 29.8 µM | SR 18.9 µM | K562 35.6 µM | SF-268 54.1 µM | HOP-92 17.1 µM | OVCAR-4 35.1 µM | SK-MEL-28 75.3 µM | COLO 205 34.6 µM | MDA-MB-435 52.1 µM | SK-MEL-2 25.2 µM | HOP-62 67.8 µM
